Values quoted from earlier work in patent US11078226B2, “Fluorogenic glycosidase substrate and associated detection method” (ECOLE NORMALE SUPERIEURE DE LYON, priority 2016, dated 2021).

Settings: cited from earlier work

Structure (SMILES): O=c1[nH]c(-c2cc(Cl)ccc2O)nc2ccc(Cl)cc12 [dichloro-HPQ, 6-chloro-2-(5-chloro-2-hydroxyphenyl)-4(3H)-quinazolinone]
- solubility in aqueous/physiological media: completely insoluble
